ChEMBL document CHEMBL5126573, “Scaffold modifications to the 4-(4,4-dimethylpiperidinyl) 2,6-dimethylpyridinyl class of HIV-1 allosteric integrase inhibitors” (Bioorg Med Chem, 2022)

How the values were obtained:
[1] = AUC (0 to infinity) in Sprague-Dawley rat at 5 mg/kg, po; type: ADME, organism-based; set-up: time infinity, dose 5 mg/kg, route po; details: in vivo
[2] = Metabolic stability in human liver microsomes assessed as half life; type: ADME, Microsome
[3] = Toxicity in rat H4-II-E cells assessed as fold change in lipid droplet formation at 10 uM incubated for 72 hrs boron-dipyrromethene staining based by high content screening (HCS) fluorescence analysis relative to control; type: cell-based
[4] = Toxicity in human Huh-7 cells assessed as fold change in lipid droplet formation at 10 uM incubated for 72 hrs boron-dipyrromethene staining based by high content screening (HCS) fluorescence analysis relative to control; type: cell-based; details: huh-7, 72 h
[5] = Metabolic stability in rat liver microsomes assessed as half life; type: ADME, Microsome
[6] = Cytotoxicity against human MT2 cells infected with HIV1 NLRep-Rluc harbouring polymorphic 124T/125T integrase; type: toxicity, cell-based; details: MT2 cells infected with HIV-1 NLRep-Rluc
[7] = Permeability of the compound at pH 5.5 by PAMPA assay; type: ADME; details: read-out: permeability
[8] = system: Human immunodeficiency virus 1; assay: Antiviral activity against recombinant HIV1 NLRep-Rluc harbouring polymorphic 124N/125A integrase infected in human MT2 cells assessed as inhibition of virus growth in presence of fetal bovine serum by measuring luciferase activity after 5 days by Luciferase Assay; type: functional, organism-based; details: Human immunodeficiency virus 1, NLRep-Rluc, MT2, 120 h
[9] = Metabolic stability in Sprague-Dawley rat assessed as clearance at 1 mg/kg, iv; type: ADME, organism-based; details: in vivo
[10] = Oral bioavailability in Sprague-Dawley rat at 5 mg/kg; type: ADME, organism-based; details: in vivo
[11] = system: Human immunodeficiency virus 1; assay: Antiviral activity against recombinant HIV1 NLRep-Rluc harbouring polymorphic 124A/125A integrase infected in human MT2 cells assessed as inhibition of virus growth in presence of fetal bovine serum by measuring luciferase activity after 5 days by Luciferase Assay; type: functional, organism-based; details: Human immunodeficiency virus 1, NLRep-Rluc, MT2, 120 h
[12] = system: Human immunodeficiency virus 1; assay: Antiviral activity against recombinant HIV1 NLRep-Rluc harbouring polymorphic 124T/125T integrase infected in human MT2 cells assessed as inhibition of virus growth in presence of fetal bovine serum by measuring luciferase activity after 5 days by Luciferase Assay; type: functional, organism-based; details: Human immunodeficiency virus 1, NLRep-Rluc, MT2, 120 h
[13] = Permeability of the compound at pH 7.4 by PAMPA assay; type: ADME; details: read-out: permeability

SMILES | AUC(0-inf) [1] [µM·h] | half-life [2] [h] | fold change (FC) [3] | fold change (FC) [4] | half-life [5] [h] | CC50 [6] [nM] | Papp [7] [×10⁻⁶ cm/s] | EC50 [8] [nM] | clearance [9] [mL/min/kg] | bioavailability [10] [%] | EC50 [11] [nM] | EC50 [12] [nM] | Papp [13] [×10⁻⁶ cm/s]
Cc1nc(C)c([C@H](OC(C)(C)C)C(=O)O)c(N2CCC(C)(C)CC2)c1-c1ccc(OCCc2ccc(F)cc2)cc1 | 14 | > 2 | 4 | 3.7 | > 2 | ≥ 18200 |  |  |  |  |  |  | 
Cc1nc2c(-c3ccc4c(c3)CCN(Cc3c(C)cccc3Cl)C4)c(N3CCC(C)(C)CC3)c([C@H](OC(C)(C)C)C(=O)O)c(C)n2n1 | 3.21 |  |  |  |  | ≥ 3000 | 35.2 | 9 | 13 | 34 | 10.1 | 6 | 48.3
Cc1cn2c(C)c([C@H](OC(C)(C)C)C(=O)O)c(N3CCC(C)(C)CC3)c(-c3ccc(OCCc4ccc(F)cc4)cc3)c2n1 | 0.269 | > 2 |  |  |  | ≥ 10300 | 38.7 | 1.8 | 40.7 | 8 | 1.6 | 0.8 | 43.8
Cc1nc2c(-c3ccc4c(c3)CCN(c3ncnc5c3oc3ccccc35)C4)c(N3CCC(C)(C)CC3)c([C@H](OC(C)(C)C)C(=O)O)c(C)n2n1 | 36.3 |  | 3.6 | 3.9 |  | ≥ 3000 | 101 | 4.5 | 2.8 | 83 | 5.2 | 3.9 | 75.2
Cc1c([C@H](OC(C)(C)C)C(=O)O)c(N2CCC(C)(C)CC2)c(-c2ccc3c(c2)CCN(c2ncnc4c2oc2ccccc24)C3)c2nccn12 | 12.1 |  |  |  |  | ≥ 3000 |  | 4.6 | 1 | 9 | 4.5 | 2.9 | 66.3
Cc1c([C@H](OC(C)(C)C)C(=O)O)c(N2CCC(C)(C)CC2)c(-c2ccc(OCCc3ccc(F)cc3)cc2)c2cncn12 |  |  |  |  |  | ≥ 18200 |  | 41 |  |  | 34.1 | 14.6 | 
Cc1c([C@H](OC(C)(C)C)C(=O)O)c(N2CCC(C)(C)CC2)c(-c2ccc(OCCc3ccc(F)cc3)cc2)c2cccn12 |  |  |  |  |  | ≥ 18200 |  | 32.6 |  |  | 38.2 | 27.7 | 
Cc1c([C@H](OC(C)(C)C)C(=O)O)c(N2CCC(C)(C)CC2)c(-c2ccc(OCCc3ccc(F)cc3)cc2)c2nc(C(C)C)cn12 |  |  |  |  |  | ≥ 10300 |  | 3.1 |  |  | 2.9 | 1.2 | 
Cc1c([C@H](OC(C)(C)C)C(=O)O)c(N2CCC(C)(C)CC2)c(-c2ccc(OCCc3ccc(F)cc3)cc2)c2nc(C3CC3)cn12 |  |  |  |  |  | ≥ 10300 |  | 11.1 |  |  | 10.7 | 4.2 | 
Cc1c([C@H](OC(C)(C)C)C(=O)O)c(N2CCC(C)(C)CC2)c(-c2ccc3c(c2)CCN(c2ncnc4c2oc2ccccc24)C3)c2cnnn12 | 21.7 |  | 1.3 | 2.7 |  | ≥ 3000 |  | 6.4 | 1.9 | 33 | 4 | 3.8 | 79
Cc1c([C@H](OC(C)(C)C)C(=O)O)c(N2CCC(C)(C)CC2)c(-c2ccc(OCCc3ccc(F)cc3)cc2)c2nc(CC(C)C)cn12 |  | > 2 |  |  | > 2 | ≥ 10300 |  | 2.6 | 44.6 |  | 3.5 | 1.2 | 
Cc1c([C@H](OC(C)(C)C)C(=O)O)c(N2CCC(C)(C)CC2)c(-c2ccc3c(c2)CCN(c2ncnc4c2oc2ccccc24)C3)c2ncnn12 | 30.7 |  |  |  |  | ≥ 3000 |  | 5.1 | 1.5 | 37 | 5 | 2.9 | 47.4
Cc1c([C@H](OC(C)(C)C)C(=O)O)c(N2CCC(C)(C)CC2)c(-c2ccc(OCCc3ccc(F)cc3)cc2)c2ncnn12 | 3.59 | > 2 | 1.6 | 2.7 | > 2 | ≥ 18200 | 160 | 4 | 11.9 | 28 | 4.6 | 2.4 | 65.4
Cc1c([C@H](OC(C)(C)C)C(=O)O)c(N2CCC(C)(C)CC2)c(-c2ccc(OCCc3ccc(F)cc3)cc2)c2cnnn12 |  |  |  |  |  | ≥ 18200 |  | 14.8 |  |  | 11.5 | 5.8 | 
Cc1c([C@H](OC(C)(C)C)C(=O)O)c(N2CCC(C)(C)CC2)c(-c2ccc(OCCc3ccc(F)cc3)cc2)c2nc(C(F)(F)F)cn12 |  |  |  |  |  | ≥ 10300 |  | 12.4 |  |  | 10.4 | 5.2 | 
Cc1c([C@H](OC(C)(C)C)C(=O)O)c(N2CCC(C)(C)CC2)c(-c2ccc(OCCc3ccc(F)cc3)cc2)c2nccn12 | 1.48 | > 2 | 1.9 | 3.3 | > 2 | ≥ 10300 | 49.8 | 1.9 | 12.5 | 13 | 1.7 | 1.1 | 41
Cc1nc2c(-c3ccc(OCCc4ccc(F)cc4)cc3)c(N3CCC(C)(C)CC3)c([C@H](OC(C)(C)C)C(=O)O)c(C)n2n1 | 2.71 | > 2 |  |  | > 2 | ≥ 40000 |  | 2.7 | 20.1 | 39 | 2.2 | 1.3 | 
Cc1c([C@H](OC(C)(C)C)C(=O)O)c(N2CCC(C)(C)CC2)c(-c2ccc(OCCc3ccc(F)cc3)cc2)c2nncn12 |  |  |  |  |  | ≥ 18200 |  | 13.7 |  |  | 15.8 | 11.9 | 
Cc1nc2c(C)c(N3CCC(C)(C)CC3)c([C@H](OC(C)(C)C)C(=O)O)c(C)n2n1 |  |  |  |  |  | ≥ 3000 |  | 540 |  |  | 1210 | 207 | 
Cc1c([C@H](OC(C)(C)C)C(=O)O)c(N2CCC(C)(C)CC2)c(-c2ccc(OCCc3ccc(F)cc3)cc2)c2ccnn12 |  |  |  |  |  | ≥ 18200 |  | 26.3 |  |  | 35.3 | 12.9 | 
CCc1cn2c(C)c([C@H](OC(C)(C)C)C(=O)O)c(N3CCC(C)(C)CC3)c(-c3ccc(OCCc4ccc(F)cc4)cc3)c2n1 |  | > 2 |  |  | > 2 | ≥ 10300 |  | 2.4 | 57.3 |  | 1.8 | 1 | 34.3
